From patent US7205295B2, “Benzoxazin-3-ones and derivatives thereof as therapeutic agents” (Warner-Lambert Company LLC, priority 2002, dated 2007)

molecular target: T1, PI3Kγ (p101/p110γ protein) (Homo sapiens, UniProt P48736); assay: PI3Kγ In Vitro Kinase Assay; format: biochemical; settings: purified recombinant p101/p110γ with G protein β1/γ2 subunits; 20 μM ATP, 25 μM PIP2; 20 minutes at room temperature
T1 construct: HA; made in house; host or cells: Spodoptera frugiperda (Sf9) cells, baculovirus co-infection
T1 sequence (P48736 whole entry, species assumed): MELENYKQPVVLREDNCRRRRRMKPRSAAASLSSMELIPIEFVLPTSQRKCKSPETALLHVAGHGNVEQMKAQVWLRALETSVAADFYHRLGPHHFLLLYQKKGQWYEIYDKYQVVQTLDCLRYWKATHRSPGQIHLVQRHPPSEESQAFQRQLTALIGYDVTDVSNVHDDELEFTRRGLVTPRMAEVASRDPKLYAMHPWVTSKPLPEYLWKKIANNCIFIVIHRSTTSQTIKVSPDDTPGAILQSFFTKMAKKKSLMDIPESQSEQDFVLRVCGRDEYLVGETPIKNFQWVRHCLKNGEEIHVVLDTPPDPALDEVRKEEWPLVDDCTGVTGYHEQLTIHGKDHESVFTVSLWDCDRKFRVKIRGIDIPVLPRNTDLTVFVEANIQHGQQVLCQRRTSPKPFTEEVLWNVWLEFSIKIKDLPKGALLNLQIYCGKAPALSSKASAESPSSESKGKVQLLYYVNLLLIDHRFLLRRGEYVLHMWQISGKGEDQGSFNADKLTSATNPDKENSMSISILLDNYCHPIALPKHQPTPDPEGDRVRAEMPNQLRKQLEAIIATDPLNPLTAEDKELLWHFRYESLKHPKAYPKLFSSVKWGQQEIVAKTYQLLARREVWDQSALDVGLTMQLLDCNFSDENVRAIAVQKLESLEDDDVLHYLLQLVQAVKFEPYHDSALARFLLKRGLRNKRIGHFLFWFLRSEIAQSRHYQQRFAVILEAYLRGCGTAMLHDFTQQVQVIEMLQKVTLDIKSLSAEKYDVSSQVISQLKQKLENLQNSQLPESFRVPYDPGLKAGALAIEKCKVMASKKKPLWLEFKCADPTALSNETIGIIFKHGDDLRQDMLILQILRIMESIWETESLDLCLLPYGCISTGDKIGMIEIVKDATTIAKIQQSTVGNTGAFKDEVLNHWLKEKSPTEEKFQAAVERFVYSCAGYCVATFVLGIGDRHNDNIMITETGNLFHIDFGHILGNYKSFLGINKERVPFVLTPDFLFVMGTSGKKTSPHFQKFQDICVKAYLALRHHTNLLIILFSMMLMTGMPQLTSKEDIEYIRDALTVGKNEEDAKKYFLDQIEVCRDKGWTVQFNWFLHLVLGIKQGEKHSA
T1 sequence (Q8WYR1 whole entry partner, species assumed): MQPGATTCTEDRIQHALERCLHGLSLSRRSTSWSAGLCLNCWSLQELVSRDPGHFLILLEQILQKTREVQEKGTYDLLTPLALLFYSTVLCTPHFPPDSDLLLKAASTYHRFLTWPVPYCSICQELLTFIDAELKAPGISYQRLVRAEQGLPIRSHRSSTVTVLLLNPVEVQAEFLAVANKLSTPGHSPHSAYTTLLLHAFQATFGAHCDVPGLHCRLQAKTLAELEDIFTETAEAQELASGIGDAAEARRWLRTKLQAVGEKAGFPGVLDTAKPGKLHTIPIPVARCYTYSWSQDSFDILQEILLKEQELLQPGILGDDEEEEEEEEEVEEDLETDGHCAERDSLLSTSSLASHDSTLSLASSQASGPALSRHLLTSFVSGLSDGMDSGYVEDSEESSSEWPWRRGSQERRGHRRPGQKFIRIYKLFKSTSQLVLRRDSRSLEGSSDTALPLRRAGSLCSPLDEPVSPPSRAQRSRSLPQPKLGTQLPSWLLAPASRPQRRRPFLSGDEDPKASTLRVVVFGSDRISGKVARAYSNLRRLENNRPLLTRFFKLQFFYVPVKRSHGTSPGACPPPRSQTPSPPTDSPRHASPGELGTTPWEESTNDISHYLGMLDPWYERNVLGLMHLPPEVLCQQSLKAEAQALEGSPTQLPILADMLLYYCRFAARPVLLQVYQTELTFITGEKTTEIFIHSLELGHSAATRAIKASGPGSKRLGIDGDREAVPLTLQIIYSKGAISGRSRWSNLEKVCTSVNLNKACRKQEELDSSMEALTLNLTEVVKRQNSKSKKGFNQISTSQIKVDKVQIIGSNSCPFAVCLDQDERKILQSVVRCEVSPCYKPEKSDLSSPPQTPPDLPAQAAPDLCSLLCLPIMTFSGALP
How it was run: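 Sf9-expressed, purified human p101/p110γ (2.7 nM) was activated by Gβ1/γ2 (57.7 nM) and reacted with 20 μM ATP plus [γ-32P]ATP on PIP2 (25 μM)/PE (300 μM) micelles with 10 mM MgCl2 in HEPES buffer. Reactions ran 20 min at room temperature. Filter-captured radiolabeled PIP3 was counted by scintillation.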

Row | SMILES | IC50 [µM]
1 | CC(C)(C)OC(=O)N1CCN(Cc2ccc(CN3C(=O)COc4ccc(C=C5SC(=S)NC5=O)cc43)cc2)CC1 [Example 74, 4-{4-[3-Oxo-6-(4-oxo-2-thioxo-thiazolidin-5-ylidenemethyl)-2,3-dihydro-1,4-benzoxazin-4-ylmethyl]-benzyl}-piperazine-1-carboxylic acid tert-butyl ester] | 0.019
2 | Cc1cc(CN2C(=O)COc3ccc(C=C4SC(=S)NC4=O)cc32)c(C(F)(F)F)o1 [Example 324, 4-(5-Methyl-2-triflouromethyl-furan-3-ylmethyl)-6-(4-oxo-2-thioxo-thiazolidin-5-ylidenemethyl)-4H-benzo[1,4]oxazin-3-one] | 0.033
3 | CCOC(=O)N1CCN(Cc2ccc(CN3C(=O)COc4ccc(C=C5SC(=O)NC5=O)cc43)cc2)CC1 [Example 240, 4-{4-[6-(2,4-Dioxo-thiazolidin-5-ylidenemethyl)-3-oxo-2,3-dihydro-1,4-benzoxazin-4-ylmethyl]-benzyl}-piperazine-1-carboxylic acid ethyl ester] | 0.032
4 | O=C1NC(=O)C(=Cc2ccc3c(c2)N(Cc2ccc(CN4CCC5(CCCCC5)CC4)cc2)C(=O)CO3)S1 [Example 239, 5-{4-[4-(3-Aza-spiro[5.5]undec-3-ylmethyl)-benzyl]-3-oxo-3,4-dihydro-2H-benzo[1,4]oxazin-6-ylmethylene}-thiazolidine-2,4-dione] | 0.039
5 | O=C1NC(=S)OC1=Cc1ccc2c(c1)N(Cc1ccc(Cl)c(C(F)(F)F)c1)C(=O)CO2 [Example 196, 4-(4-Chloro-3-trifluoromethyl-benzyl)-6-(4-oxo-2-thioxo-oxazolidin-5-ylidenemethyl)-4H-1,4-benzoxazin-3-one] | 0.026
6 | O=C1NC(=S)SC1=Cc1cc(F)c2c(c1)N(Cc1ccc(F)c(C(F)(F)F)c1)C(=O)CO2 [Example 292, 8-Fluoro-4-(4-fluoro-3-trifluoromethyl-benzyl)-6-(4-oxo-2-thioxo-thiazolidin-5-ylidenemethyl)-4-H-benzo[1,4]oxazin-3-one] | 0.011
7 | Cc1cc(CN2C(=O)COc3ccc(C=C4SC(=S)NC4=O)cc32)cc(-c2c(C)noc2C)c1 [Example 117, 4-[3-(3,5-Dimethyl-isoxazol-4-yl)-5-methyl-benzyl]-6-(4-oxo-2-thioxo-thiazolidin-5-ylidenemethyl)-4H-benzo[1,4]oxazin-3-one] | 0.04
8 | CN1CCN(C(=O)c2cc(CN3C(=O)COc4ccc(/C=C5\SC(=S)NC5=O)cc43)cc(C(C)(C)C)c2)CC1 [Example 279, 4-[3-tert-Butyl-5-(4-methyl-piperazine-1-carbonyl)-benzyl]-6-[4-oxo-2-thioxo-thiazolidin-(5Z)-ylidenemethyl]-4H-benzo[1,4]oxazin-3-one] | 0.016
9 | CC(C)(C)c1cc(CN2C(=O)COc3c(F)cc(/C=C4\SC(=O)NC4=O)cc32)cc(C(C)(C)O)c1 [Example 276, 5-[1-{4-[3-tert-Butyl-5-(1-hydroxy-1-methyl-ethyl)-benzyl]-8-fluoro-3-oxo-3,4-dihydro-2H-benzo[1,4]oxazin-6-yl}-meth-(Z)-ylidene]-thiazolidine-2,4-dione] | 0.007
10 | CC(C)(C)c1cc(CN2C(=O)COc3c(F)cc(CC4SC(=S)NC4=O)cc32)cc(C(C)(C)O)c1 (stereo not shown) [Example 236, 4-[3-tert-Butyl-5(1-hydroxy-1-methyl-ethyl)-benzyl]-8-fluoro-6-(4-oxo-2-thioxo-thazolidin-5-ylmethyl)-4H-benzo[1,4]oxazin-3-one] | 0.005
11 | O=C1NC(=S)SC1=Cc1cc(F)c2c(c1)N(Cc1ccc3nccnc3c1)C(=O)CO2 [Example 315, 8-Fluoro-6-(4-Oxo-2-thioxo-thiazolidin-5-ylidenemethyl)-4-quinoxalin-6-ylmethyl-4H-benzo[1,4]oxazin-3-one; Compound with Ethane-1,2-diamine] | 0.044
12 | Cc1cc(CN2C(=O)COc3c(F)cc(C=C4SC(=S)NC4=O)cc32)nn1C(C)(C)C [Example 325, 4-(1-tert-Butyl-5-methyl-1H-pyrazol-3-ylmethyl)-8-flouro-6-(4-oxo-2-thioxo-thiazolidin-5-ylidenemethyl)-4H-benzo[1,4]oxazin-3-one] | 0.018
13 | CC(C)(C)c1cc(CN2C(=O)COc3c(Cl)cc(C=C4SC(=S)NC4=O)cc32)cc(C(C)(C)C)c1 [Example 47, 8-Chloro-4-(3,5-di-tert-butyl-benzyl)-6-(4-oxo-2-thioxo-thiazolidin-5-ylidenemethyl)-4H-1,4-benzoxazin-3-one] | 0.32

Results, then the compound that gave them:

Row | IC50 [µM] | SMILES
14 | 0.098 | O=C1NC(=S)SC1=Cc1ccc2c(c1)N(Cc1cc(F)cc(C(F)(F)F)c1)C(=O)CO2 [Example 187, 4-(3-Fluoro-5-trifluoromethyl-benzyl)-6-(4-oxo-2-thioxo-thiazolidin-5-ylidenemethyl)-4H-1,4-benzoxazin-3-one]
15 | 0.047 | O=C1NC(=S)SC1=Cc1cc(F)c2c(c1)N(Cc1cncc(Cl)c1)C(=O)CO2 [Example 330, 4-(5-Chloro-pyridin-3-ylmethyl)-8-fluoro-6-(4-oxo-2-thioxo-thiazolidin-5-ylidenemethyl)-4H-1,4-benzoxazin-3-one]
16 | 0.005 | O=C1NC(=S)SC1=Cc1ccc2c(c1)N(Cc1ccc(OCc3ccccc3)cc1)C(=O)CO2 [Example 23, 4-(4-Benzyloxy-benzyl)-6-(4-oxo-2-thioxo-thiazolidin-5-ylidenemethyl)-4H-1,4-benzoxazin-3-one]
17 | 0.01 | CC(C)(C)CCN1C(=O)COc2ccc(C=C3SC(=S)NC3=O)cc21 [Example 155, 4-(3,3-Dimethyl-butyl)-6-(4-oxo-2-thioxo-thiazolidin-5-ylidenemethyl)-4H-1,4-benzoxazin-3-one]
18 | 0.03 | O=C1NC(=S)SC1=Cc1ccc2c(c1)N(Cc1ccc(OCc3ccccc3)cc1)C(=O)CO2 [Example 163, 4-(4-Benzyloxy-benzyl)-6-(4-oxo-2-thioxo-thiazolidin-5-ylidenemethyl)-4H-1,4-benzoxazin-3-one]
19 | 0.012 | O=C1NC(=O)C(=Cc2ccc3c(c2)N(Cc2ccoc2)C(=O)CO3)S1 [Example 338, 5-(4-Furan-3-ylmethyl-3-oxo-3,4-dihydro-2H-1,4-benzoxazin-6-ylmethylene)-thiazolidine-2,4-dione]
20 | 0.007 | COc1ccc(CCN2C(=O)COc3ccc(C=C4SC(=S)NC4=O)cc32)cc1 [Example 136, 4-[2-(4-Methoxy-phenyl)-ethyl]-6-(4-oxo-2-thioxo-thiazolidin-5-ylidenemethyl)-4H-1,4-benzoxazin-3-one]
21 | 0.39 | CN1CC(=O)N(Cc2ccccc2)c2cc(C=C3SC(=S)NC3=O)ccc21 [Example 197, 1-Benzyl-4-methyl-7-(4-oxo-2-thioxo-thiazolidin-5-ylidenemethyl)-3,4-dihydro-1H-quinoxalin-2-one]
22 | 0.009 | CC(C)(C)c1cc(C#N)cc(CN2C(=O)COc3ccc(C=C4SC(=S)NC4=O)cc32)c1 [Example 55, 3-tert-Butyl-5-[3-oxo-6-(4-oxo-2-thioxo-thiazolidin-5-ylidenemethyl)-2,3-dihydro-1,4-benzoxazin-4-ylmethyl]-benzonitrile]
23 | 0.006 | O=C1NC(=S)SC1=Cc1cc(F)c2c(c1)N(Cc1ccc3ncccc3c1)C(=O)CO2 [Example 328, 8-Fluoro-6-(4-oxo-2-thioxo-thiazolidin-5-ylidenemethyl)-4-quinolin-6-ylmethyl-4H-1,4-benzoxazin-3-one]
24 | 0.007 | O=C1NC(=S)SC1=Cc1cc(F)c2c(c1)N(Cc1ccc(CN3CCCCC3)cc1)C(=O)CO2 [Example 73, 8-Fluoro-6-(4-oxo-2-thioxo-thiazolidin-5-ylidenemethyl)-4-(4-piperidin-1-ylmethyl-benzyl)-4H-1,4-benzoxazin-3-one]
25 | 0.008 | O=C1NC(=S)SC1=Cc1cc(F)c2c(c1)N(Cc1ccccc1)C(=O)CO2 [Example 46, 4-Benzyl-8-fluoro-6-(4-oxo-2-thioxo-thiazolidin-5-ylidenemethyl)-4H-1,4-benzoxazin-3-one]
26 | 0.032 | CC(C)(C)c1cc(CN2C(=O)COc3ccc(C=C4SC(=S)NC4=O)cc32)cc(C(=O)O)c1 [Example 58, 3-tert-Butyl-5-[3-oxo-6-(4-oxo-2-thioxo-thiazolidin-5-ylidenemethyl)-2,3-dihydro-1,4-benzoxazin-4-ylmethyl]-benzoic acid]
27 | 0.016 | CC(=O)c1cc(CN2C(=O)COc3ccc(C=C4SC(=S)NC4=O)cc32)cc(C(C)(C)C)c1 [Example 64, 4-(3-Acetyl-5-tert-butyl-benzyl)-6-(4-oxo-2-thioxo-thiazolidin-5-ylidenemethyl)-4H-1,4-benzoxazin-3-one]
28 | 0.012 | CC(C)(O)c1cc(CN2C(=O)COc3c(F)cc(C=C4SC(=S)NC4=O)cc32)ccc1F [Example 302, 8-Fluoro-4-[4-fluoro-3-(1-hydroxy-1-methyl-ethyl)-benzyl]-6-(4-oxo-2-thioxo-thiazolidin-5-ylidenemethyl)-4H-benzo[1,4]oxazin-3-one; Compound with Ethane-1,2-diamine]
29 | 0.034 | CC(C)n1cnc2cc(CN3C(=O)COc4ccc(C=C5SC(=S)NC5=O)cc43)ccc21 [Example 335, 4-(1-Isopropyl-1H-benzimidazol-5-ylmethyl)-6-(4-oxo-2-thioxo-thiazolidin-5-ylidenemethyl)-4H-1,4-benzoxazin-3-one]
30 | 0.018 | CS(=O)(=O)c1cccc(CN2C(=O)COc3ccc(/C=C4\SC(=O)NC4=O)cc32)c1 [Example 265, 5-[1-[4-(3-Methanesulfonyl-benzyl)-3-oxo-3,4-dihydro-2H-benzo[1,4]oxazin-6-yl]-meth-(Z)-ylidene]-thiazolidine-2,4-dione]
31 | 0.433 | CS(=O)(=O)c1ccc(Cn2c(=O)oc3ccc(C=C4SC(=S)NC4=O)cc32)cc1 [Example 291, 3-(4-Methanesulfonyl-benzyl)-5-(4-oxo-2-thioxo-thiazolidin-5-ylidenemethyl)-3H-benzoxazol-2-one; Compound with Ethane-1,2-diamine]
